Laboratory results: patent US20240309389A1, “Chimeric FCeRI a-Chain Gene, Chimeric FCeRI a-Chain Protein, Cells, Analysis Kit and Analysis Method” (TEIKYO HEISEI UNIVERSITY, priority 2021, published 2024)

Key:
Format in all cases: cell-based, rat
RBL-NL4 cells = experiment: Luciferase expression on stimulation in RBL-NL4 cells; settings: unsensitized, 250 μM, 37° C., 3 hours
Description: Luciferase expression of when stimulated with ionomycin, anti-human IgE antibody, or specific antigen is confirmed for each of cultures obtained by culturing the seven clones obtained in (2) above and RBL-NL4 cells. Specifically, the confirmation was carried out as follows.
On the day before the test for confirming luciferase expression when the stimulus was applied, the following operations were performed. […] The medium was placed in each well of a white 96-well plate made of plastic with a transparent bottom (product number: 165306, Thremo). Cells of each clone were then seeded at 5×10^4 cells/50 μL per well, and allowed to stand overnight in an incubator for sensitization. […]
After applying the stimulation, 50 μL/well of a substrate solution (One-Glo Luciferase Assay System, Promega) was added to each well and allowed to react for 5 minutes, and then the luminescence intensity was measured using a luminometer (GloMax, Promega).
In FIG. 7, black dots indicate the measured luciferase luminescence intensity (unit: CPS) (right axis: LUMINESCENCE (CPS)). […] The relative luminescence intensity is the relative luminescence intensity when the luminescence intensity of each clone when unstimulated is set to 1, and is shown on a log scale.

RS-ATL8 cells = experiment: IgE crosslinking-induced luciferase expression, inhibitor evaluation in RS-ATL8 cells
Description: (§1) HuRa-40 cells and RS-ATL8 cells were prepared.
(§2) After washing the sensitized cells with PBS three times, […] was added and stimulated at 37° C. for 3 hours.
(§3) After the stimulation time had elapsed, Bright-Glo (Promega) substrate solution was added to each well in an amount of 50 μL/well, and reacted for 5 minutes at room temperature while shielding from light. After that, the luminescence intensity was measured with a microplate reader (GloMax, Promega).
(§4) A study similar to that described above was performed with cyclosporin A instead of omalizumab. Specifically, RS-ATL8 cells or HuRa-40 cells were added with cyclosporin A at a final concentration of 0 to 1 μg/mL, and, 30 minutes later, 50 ng/ml of human IgE was added to sensitize them overnight. After washing with PBS three times, the cells were stimulated with an anti-human IgE antibody for 3 hours, and Bright-Glo was added to measure luminescence.

HuRa-40 cells = experiment: IgE crosslinking-induced luciferase expression, inhibitor evaluation in HuRa-40 cells
Description: as §1, §2, §3, §4

[1] = drug added 30 min before 50 ng/ml human IgE overnight sensitization, anti-human IgE stimulation 3 h, read from FIG. 17
[2] = omalizumab 100 μg/mL, fraction of the 0 μg/mL value

Compound	luciferase expression level compared to anti-human IgE antibody stimulation (no IgE and aIgE) (RBL-NL4 cells)	change of luminescence intensity, concentration increased from 0.1 μg/mL to 1 μg/mL (RS-ATL8 cells)	change of luminescence intensity, concentration increased from 1 μg/mL to 10 μg/mL (RS-ATL8 cells)	50% inhibitory concentration (IC50) (RS-ATL8 cells; [1])	luminescence intensity at 100 μg/mL compared to 0 μg/mL (RS-ATL8 cells; [2])	change of luminescence intensity, concentration increased from 0.1 μg/mL to 1 μg/mL (HuRa-40 cells)	50% inhibitory concentration (IC50) (HuRa-40 cells; [1])	luminescence intensity at 100 μg/mL compared to 0 μg/mL (HuRa-40 cells; [2])
C[C@H](CCC(=O)O)C[C@H](C)C[C@H](C)C(=O)/C=C(\O)[C@H](C)C[C@H](C)C/C=C/[C@@H](C)[C@@H](O)[C@@H](C)[C@@H](O)C[C@@H]1CC[C@@](C)([C@H]2CC[C@@](C)([C@@H](C)O)O2)O1 [ionomycin]	greatly increased	–	–	–	–	–	–	–
Omalizumab	–	decreased slightly	further decreased	greater than 1 μg/mL	about ¼	significant decrease in luminescence intensity	less than 1 μg/mL	less than 1/30
